# In ChEMBL document CHEMBL2203089, “Synthesis of enantiomerically pure perhydro-1,4-diazepine-2,5-dione and 1,4-piperazine-2,5-dione derivatives exhibiting potent activity as apoptosis inhibitors” (Bioorg Med Chem Lett, 2012):
# pEC50: −log10 of the molar value. Active and inactive are the calls of the source. The calls are words filed in the database; no cut-off is given here.
# Experiments:
# [1] = Inhibition of Apaf-1-caspase 9-cytochrome c (horse) complex assessed as inhibition of release of afc from […] preincubated for 60 mins before substrate addition by fluorescence assay
# [2] = target: Apoptotic protease-activating factor 1/Caspase-3/Caspase-9/Cytochrome c (Homo sapiens, UniProt O14727+P42574+P55211+P99999); assay: Inhibition of Apaf-1-caspase 9-cytochrome c-caspase 3 complex in human HEK293 cytosolic extract using afc-DEVD as substrate preincubated for 30 mins before substrate addition measured after 30 mins by fluorescence assay
# Apoptotic protease-activating factor 1/Caspase-3/Caspase-9/Cytochrome c, sequence (O14727 whole entry): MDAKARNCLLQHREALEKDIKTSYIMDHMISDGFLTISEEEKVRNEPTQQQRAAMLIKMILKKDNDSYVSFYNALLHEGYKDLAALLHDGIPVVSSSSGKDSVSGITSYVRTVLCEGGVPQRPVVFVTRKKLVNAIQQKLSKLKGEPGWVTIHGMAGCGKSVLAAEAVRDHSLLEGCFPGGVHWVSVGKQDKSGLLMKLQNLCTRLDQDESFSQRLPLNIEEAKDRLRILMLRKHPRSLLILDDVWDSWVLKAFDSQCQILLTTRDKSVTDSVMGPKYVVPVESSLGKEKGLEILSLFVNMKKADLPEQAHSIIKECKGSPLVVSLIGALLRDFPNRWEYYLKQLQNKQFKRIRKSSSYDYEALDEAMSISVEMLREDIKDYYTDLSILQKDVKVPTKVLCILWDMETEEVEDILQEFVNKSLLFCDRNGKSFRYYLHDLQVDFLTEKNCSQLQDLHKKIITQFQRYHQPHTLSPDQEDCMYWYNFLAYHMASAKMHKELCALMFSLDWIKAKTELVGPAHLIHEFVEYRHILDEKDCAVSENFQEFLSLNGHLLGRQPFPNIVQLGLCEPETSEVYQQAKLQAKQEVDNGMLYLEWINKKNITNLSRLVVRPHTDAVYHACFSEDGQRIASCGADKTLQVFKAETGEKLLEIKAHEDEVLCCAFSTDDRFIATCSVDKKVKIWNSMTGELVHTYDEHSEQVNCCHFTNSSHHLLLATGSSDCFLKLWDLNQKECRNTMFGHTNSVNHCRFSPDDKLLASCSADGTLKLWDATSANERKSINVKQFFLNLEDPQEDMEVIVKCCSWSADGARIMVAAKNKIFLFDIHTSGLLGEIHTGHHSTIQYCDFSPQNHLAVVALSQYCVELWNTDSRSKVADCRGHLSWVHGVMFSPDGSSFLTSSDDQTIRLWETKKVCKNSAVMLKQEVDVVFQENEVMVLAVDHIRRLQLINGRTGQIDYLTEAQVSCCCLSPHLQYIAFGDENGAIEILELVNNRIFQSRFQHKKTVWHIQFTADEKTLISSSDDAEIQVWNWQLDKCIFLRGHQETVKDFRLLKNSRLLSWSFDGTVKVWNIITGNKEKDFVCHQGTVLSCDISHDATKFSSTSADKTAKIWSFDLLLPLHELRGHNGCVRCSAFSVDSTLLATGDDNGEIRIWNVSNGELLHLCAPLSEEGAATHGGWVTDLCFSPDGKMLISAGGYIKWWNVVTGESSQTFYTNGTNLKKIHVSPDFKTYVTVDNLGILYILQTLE
# Apoptotic protease-activating factor 1/Caspase-3/Caspase-9/Cytochrome c, sequence (P42574 29-175 limits assumed): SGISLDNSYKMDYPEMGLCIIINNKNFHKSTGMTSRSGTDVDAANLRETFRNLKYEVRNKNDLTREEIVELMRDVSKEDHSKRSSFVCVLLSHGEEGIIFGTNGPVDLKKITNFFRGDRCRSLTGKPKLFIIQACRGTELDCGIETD
# Apoptotic protease-activating factor 1/Caspase-3/Caspase-9/Cytochrome c, sequence (P42574 176-277 limits assumed): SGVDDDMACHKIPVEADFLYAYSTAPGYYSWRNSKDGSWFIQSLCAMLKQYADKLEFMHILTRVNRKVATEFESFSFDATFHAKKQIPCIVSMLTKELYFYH
# Apoptotic protease-activating factor 1/Caspase-3/Caspase-9/Cytochrome c, sequence (P55211 1-315 limits assumed): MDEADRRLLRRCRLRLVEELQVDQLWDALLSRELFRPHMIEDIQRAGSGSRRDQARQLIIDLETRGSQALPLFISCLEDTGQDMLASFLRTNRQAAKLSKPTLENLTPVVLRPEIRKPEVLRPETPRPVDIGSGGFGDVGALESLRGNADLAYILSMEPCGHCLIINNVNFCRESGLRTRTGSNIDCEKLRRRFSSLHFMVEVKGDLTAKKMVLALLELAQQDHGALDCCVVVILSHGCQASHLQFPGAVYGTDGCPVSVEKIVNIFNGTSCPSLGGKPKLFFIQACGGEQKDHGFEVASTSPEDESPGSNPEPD
# Apoptotic protease-activating factor 1/Caspase-3/Caspase-9/Cytochrome c, sequence (P55211 331-416 limits assumed): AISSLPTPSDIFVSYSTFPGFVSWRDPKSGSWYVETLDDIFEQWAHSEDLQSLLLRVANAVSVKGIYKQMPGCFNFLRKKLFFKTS
# Apoptotic protease-activating factor 1/Caspase-3/Caspase-9/Cytochrome c, sequence (P99999 2-105 limits assumed): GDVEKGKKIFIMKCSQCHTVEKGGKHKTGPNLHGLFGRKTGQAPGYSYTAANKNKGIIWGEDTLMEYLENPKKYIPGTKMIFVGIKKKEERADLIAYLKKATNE
# [3] = Inhibition of beta-lactamase
SMILES,pEC50 [1],pEC50 [2],inhibition [3]
NC(=O)CN(CCc1ccc(Cl)cc1Cl)C(=O)[C@H]1CC(=O)N(CCc2ccc(Cl)cc2Cl)CC(=O)N1CCC(c1ccccc1)c1ccccc1,5.30,4.84,inactive
NC(=O)CN(CCc1ccc(Cl)cc1Cl)C(=O)C1CC(=O)N(CCc2ccc(Cl)cc2Cl)CC(=O)N1CCC(c1ccccc1)c1ccccc1 (racemic),5.10,4.77,–
NC(=O)CN(CCc1ccc(Cl)cc1Cl)C(=O)[C@@H]1CC(=O)N(CCc2ccc(Cl)cc2Cl)CC(=O)N1CCC(c1ccccc1)c1ccccc1,5.49,4.85,inactive

# Further lines, results first:
pEC50 [1],pEC50 [2],inhibition [3],SMILES
5.21,4.77,–,NC(=O)CN(CCc1ccc(Cl)cc1Cl)C(=O)CC1C(=O)N(CCc2ccc(Cl)cc2Cl)CC(=O)N1CCC(c1ccccc1)c1ccccc1 (racemic)
5.02,4.62,inactive,NC(=O)CN(CCc1ccc(Cl)cc1Cl)C(=O)C[C@H]1C(=O)N(CCc2ccc(Cl)cc2Cl)CC(=O)N1CCC(c1ccccc1)c1ccccc1
4.97,4.52,inactive,NC(=O)CN(CCc1ccc(Cl)cc1Cl)C(=O)C[C@@H]1C(=O)N(CCc2ccc(Cl)cc2Cl)CC(=O)N1CCC(c1ccccc1)c1ccccc1
